# Measured values reported in the supplement of paper PMC10790783.
# Test system: MRC5-hT fibroblasts expressing HCMV UL38 (glucose-free medium)
# Experiment: rescue of cell number (AUC of dose-response) relative to untreated glucose-free control; higher = stronger protection from glucose-starvation-induced cell death
# Conditions: glucose: 0 (glucose-free DMEM); 96 h; dose range 0.001-20, 10-point curve µM
# Description: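 MRC5-hT fibroblasts stably expressing HCMV UL38 were seeded in 384-well plates, serum-starved for 24 h, switched to glucose-free DMEM, and pin-transferred with a metabolism-focused compound library as 10-point dose curves (1 nM to 20 µM; n=2). Nuclei were counted by Hoechst imaging 96 h after glucose withdrawal.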
row,Structure (SMILES),rescue of cell number [%]
1,Cc1nc(=O)c2cc(CN(C)c3ccc(C(=O)N[C@@H](CCC(=O)O)C(=O)O)s3)ccc2[nH]1 [Raltitrexed],-26.7
2,N#CSc1cc(SC#N)c(N)nc1N [PR-619],-9.68
3,CCCC(CCC)C(=O)O [Valproic_acid],-34
4,CC(=O)NC[C@H]1CN(c2ccc(N3CCOCC3)c(F)c2)C(=O)O1 [Linezolid],-6.21
5,OC[C@H]1O[C@@H](c2ccc(F)c(Cc3cc4ccccc4s3)c2)[C@H](O)[C@@H](O)[C@@H]1O [Ipragliflozin],-33.8
6,CC(C)(O)CNc1nc(Nc2ccnc(C(F)(F)F)c2)nc(-c2cccc(C(F)(F)F)n2)n1 [AG-221],26.9
